Literature values as cited in patent US11167013B2, “Sucrose acetate isobutyrate-based compositions, methods and uses thereof” (ASSOCIATION FOR THE ADVANCEMENT OF TISSUE ENGINEERING CELL …, priority 2017, dated 2021).

How the values were obtained:
[1] = as food additive
[2] = neat SAIB

## Sucrose acetate isobutyrate [SAIB]
[1]
  allowable daily intake: 20 mg·kg/day
[2]
  viscosity: over 100 Pa·s
